Measured values taken from US11779559B2, “Compositions for treating fungal and bacterial biofilms and methods of using the same” (priority 2017, dated 2023).
Where two headings read alike, the source gives them in different places.

Tests used:
bacterial biofilms = assay: Biofilm assays (sustained inhibition and/or disruption), bacterial biofilms; type: cell-based; details: in at least one of the two biofilm assays; for Anti-biofilm effect against bacterial biofilms (reduction): administered individually at about 0.1 to about 5.0% weight to volume
Procedure: (§1) Two types of biofilm assays were performed: a sustained inhibition assay and a disruption assay. The sustained inhibition assay assesses the compound's ability to prevent biofilm development throughout all stages of biofilm formation, while the disruption assay assesses the compound's ability to break up an existing mature biofilm. These assays are described in detail in the following article: Lohse, M. B., Gulati, M., Valle Arevalo, A., Fishburn, A., Johnson, A. D., and Nobile, C. J. (2017) Assessment and optimizations of Candida albicans in vitro biofilm assays. Antimicrobial Agents and Chemotherapy 61: e02749-16.
(§2) For fungal biofilm assays, all solutions were prepared in RPMI 1640 medium. All bacterial biofilm solutions were prepared in Trypic Soy Broth (TSB), supplemented with 1% glucose (henceforth referred to as TSB-G). All subsequent procedures were performed in a manner that maintained sterility. A solution of each amino acid to be tested was prepared in weight to volume concentrations ranging from 0.1-5.0%. Amino acids were also tested in combinations. Compound solutions were homogenized with gentle agitation in the dark (4° C., 24 hours) before use.
All biofilm assays were performed using 384-well non-tissue culture treated polystyrene plates. The fungal species tested are as follows: Candida albicans, Candida guilhermondii, Candida parapsilosis, Candida glabrata, Candida tropicalis, Candida dubliniensis, and Candida auris. The bacterial species tested are as follows: Staphylococcus aureus (standard wild type and methicillin-resistant strain USA300), Escherichia coli, Pseudomonas aeruginosa and Staphylococcus epidermidis.
(§3) Bacterial strains were streaked on Blood Agar plates (5% sheep blood in Tryptic Soy Agar) and incubated at 37° C. for 24 hours. A single colony from each strain to be tested was inoculated in a TSB broth and grown for 12 hours, at 37° C. with shaking (225 rpm). For the bacterial biofilm inhibition assays, 1 μL of saturated overnight cell culture was added to either 80 μL of TSB-G, or TSB-G supplemented with the amino acid compound solution to be tested, in a 384-well plate. The cells were allowed to adhere to the plate for 60 minutes at 37° C. without shaking. The media was carefully aspirated and 80 μL of TSB-G, or TSB-G supplemented with the amino acid compound solution was added to the plate. The plate was further incubated for 24 hours at 37° C. without shaking. Media was carefully aspirated and the biofilm was measured by optical density at 600 nm. Eight or twelve replicates were performed for each tested condition and the reported values are normalized to the control (TSB-G media only). For the bacterial biofilm disruption assays, 80 μL of TSB-G was added to the plate, along with 1 μL of overnight cell culture. The cells were allowed to adhere to the plate for 60 minutes at 37° C. with no shaking. The media was carefully aspirated and 80 μL of TSB-G was added to the plate. The plate was further incubated for 24 hours at 37° C. with no shaking. Media was carefully aspirated from the mature biofilm and 80 μL of TSB-G, or TSB-G supplemented with the amino acid to be tested, was gently added to the plate. The plate was further incubated for 24 hours at 37° C. without shaking. Media was aspirated and the biofilm was measured by optical density at 600 nm. Twelve replicates were performed for each tested condition and the reported values are normalized to the control (TSB-G media only).

S. aureus [1] = assay: Sustained inhibition biofilm assay, bacterial; type: cell-based, Staphylococcus aureus; details: for activation at 1 %: Staphylococcus aureus, read-out: Promote B Biofilm
Procedure: as §1, with “J. (2017) Assessment and optimizations of Candida albicans in vitro biofilm assays.” left out
as §2, with “All” for “For fungal biofilm assays, all solutions were prepared in RPMI 1640 medium. All”
as §3

S. aureus [2] = assay: Disruption biofilm assay, bacterial; type: cell-based, Staphylococcus aureus; details: for inhibition at 1 % / activation at 1 %: Staphylococcus aureus; for inhibition at 1 %: 24 h, read-out: Reduce B Biofilm; for activation at 1 %: read-out: Promote B Biofilm
Procedure: as §1, with “J. (2017) Assessment and optimizations of Candida albicans in vitro biofilm assays.” left out
as §2, with “All” for “For fungal biofilm assays, all solutions were prepared in RPMI 1640 medium. All”
as §3

[3] = sustained inhibition assay, S. aureus, 1% amino acid (unless specifically noted), p≤0.001
[4] = disruption assay, S. aureus, 1% amino acid (unless specifically noted), p≤0.001

Structure (SMILES) | Effect on bacterial biofilm growth (bacterial biofilms) | activation at 1 % (S. aureus [2]; [4]) [%] | activation at 1 % (S. aureus [1]; [3]) [%] | further results
NC(CCCC(=O)O)C(=O)O (stereo not shown) [2 Aminoadipic Acid, 2-aminoadipic acid] |  |  |  | Anti-biofilm effect against bacterial biofilms (reduction) (bacterial biofilms): less than twofold; Reduce B Biofilm (S. aureus [1]; [3]): ● (a single dot [ie. •] signifies minor effect (from about 10 to about 30% change)); inhibition at 1 % (S. aureus [2]; [4]): 10 to 30%
C[C@H](N)C(=O)O [Alanine, L-alanine] | support (improve) bacterial biofilm growth | 10 to 30 |  | 
N=C(N)NCCC[C@H](N)C(=O)O [Arginine, L-arginine] | support (improve) bacterial biofilm growth |  |  | activation at 1 % (S. aureus [1]): 10 to 30%; activation at 1 % (S. aureus [2]): 10 to 30%
NC(=O)C[C@H](N)C(=O)O [Asparagine, L-asparagine] | support (improve) bacterial biofilm growth |  | 10 to 30 | 
NCCC(=O)O [Beta-Alanine, Beta-alanine] |  |  |  | Anti-biofilm effect against bacterial biofilms (reduction) (bacterial biofilms): less than twofold; Reduce B Biofilm (S. aureus [1]; [3]): ● (a single dot [ie. •] signifies minor effect (from about 10 to about 30% change))
NC(=O)NCCC[C@H](N)C(=O)O [Citrulline, L-citrulline] | support (improve) bacterial biofilm growth |  |  | activation at 1 % (S. aureus [1]): 10 to 30%; activation at 1 % (S. aureus [2]): 10 to 30%
N[C@@H](CCSC[C@H](N)C(=O)O)C(=O)O [Cystathionine (0.2%), L-cystathionine] |  |  |  | inhibition at 1 % (S. aureus [2]; [4]): 10 to 30%
NCC(=O)O [Glycine, L-glycine] | support (improve) bacterial biofilm growth | 10 to 30 | 10 to 30 | 
O=C(O)[C@@H]1C[C@@H](O)CN1 [Hydroxyproline, Trans-4-hydroxy-L-proline] |  |  |  | Anti-biofilm effect against bacterial biofilms (reduction) (bacterial biofilms): less than twofold; Reduce B Biofilm (S. aureus [1]; [3]): ● (a single dot [ie. •] signifies minor effect (from about 10 to about 30% change)); inhibition at 1 % (S. aureus [2]): 10 to 30%
CC[C@H](C)[C@H](N)C(=O)O [Isoleucine, L-isoleucine] | support (improve) bacterial biofilm growth | 10 to 30 |  | 
CC(C)C[C@H](N)C(=O)O [Leucine, L-leucine] | support (improve) bacterial biofilm growth | 10 to 30 | 10 to 30 | 
NCCCC[C@H](N)C(=O)O [Lysine, L-lysine] | support (improve) bacterial biofilm growth |  |  | activation at 1 % (S. aureus [1]): 10 to 30%; activation at 1 % (S. aureus [2]): 10 to 30%
CSCC[C@H](N)C(=O)O [Methionine, L-methionine] | support (improve) bacterial biofilm growth |  | 10 to 30 | 
NCCC[C@H](N)C(=O)O [Ornithine, L-ornithine] | support (improve) bacterial biofilm growth | 10 to 30 | 10 to 30 | 
N[C@@H](Cc1ccccc1)C(=O)O [Phenylalanine, L-phenylalanine] | support (improve) bacterial biofilm growth | 10 to 30 | 10 to 30 | 
NCCOP(=O)(O)O [Phosphoethanolamine, 0-phosphoethanolamine] |  |  |  | Anti-biofilm effect against bacterial biofilms (reduction) (bacterial biofilms): less than twofold; Reduce B Biofilm (S. aureus [1]; [3]): ● (a single dot [ie. •] signifies minor effect (from about 10 to about 30% change)); Reduce B Biofilm (S. aureus [2]; [4]): ● (a single dot [ie. •] signifies minor effect (from about 10 to about 30% change))
N[C@@H](CO)C(=O)O [Serine, L-serine] | support (improve) bacterial biofilm growth | 10 to 30 | 10 to 30 | 
NCCS(=O)(=O)O [Taurine, L-taurine] | support (improve) bacterial biofilm growth | 10 to 30 | 10 to 30 | 
C[C@@H](O)[C@H](N)C(=O)O [Threonine, L-threonine] | support (improve) bacterial biofilm growth |  | 10 to 30 | 
